According to ChEMBL document CHEMBL5543109, “Novel β-Hairpin Antimicrobial Peptide Containing the β-Turn Sequence of -NG- and the Tryptophan Zippers Facilitate Self-Assembly into Nanofibers, Exhibiting Excellent Antimicrobial Performance” (J Med Chem, 2024):
Values after ≈ are worked out from the molar mass of the structure shown.

Legend:
[1] = system: Bacillus subtilis; assay: Antibacterial activity against Bacillus subtilis ATCC 23857 incubated for 18 hrs by broth microdilution method; assay type: functional
[2] = system: Staphylococcus aureus; assay: Antibacterial activity against Staphylococcus aureus ATCC 25923 incubated for 18 hrs by broth microdilution method; assay type: functional
[3] = system: Klebsiella pneumoniae; assay: Bactericidal activity against Klebsiella pneumoniae ATCC 700603 incubated for 18 hrs by broth microdilution method; assay type: functional
[4] = Self-assembly property of compound in PBS assessed as beta-sheet content; assay type: physicochemical; details: buffer
[5] = system: Erythrocyte; assay: Hemolytic activity in mouse erythrocytes assessed as concentration required to cause 10% hemolysis incubated for 1 hr; assay type: toxicity, cell-based
[6] = system: Staphylococcus aureus; assay: Antibacterial activity against Staphylococcus aureus at 2 times MIC preincubated for 1 hr with trypsin followed by enzyme inactivation and bacterial addition and measured after 18 hrs; assay type: functional; details: time 19 hrs
[7] = system: Pseudomonas aeruginosa; assay: Antibacterial activity against Pseudomonas aeruginosa ATCC 27853 incubated for 18 hrs by broth microdilution method; assay type: functional
[8] = system: Staphylococcus epidermidis; assay: Antibacterial activity against Staphylococcus epidermidis ATCC 12228 incubated for 18 hrs by broth microdilution method; assay type: functional
[9] = system: Bacillus subtilis; assay: Bactericidal activity against Bacillus subtilis ATCC 23857 incubated for 18 hrs by broth microdilution method; assay type: functional
[10] = system: Escherichia coli; assay: Bactericidal activity against Escherichia coli ATCC 25922 incubated for 18 hrs by broth microdilution method; assay type: functional
[11] = Self-assembly property of compound in water assessed as beta-sheet content; assay type: physicochemical
[12] = Self-assembly property of compound in 50% TFE assessed as beta-sheet content; assay type: physicochemical
[13] = system: Escherichia coli; assay: Antibacterial activity against Escherichia coli ATCC 25922 incubated for 18 hrs by broth microdilution method; assay type: functional
[14] = system: Staphylococcus epidermidis; assay: Bactericidal activity against Staphylococcus epidermidis ATCC 12228 incubated for 18 hrs by broth microdilution method; assay type: functional
[15] = system: Staphylococcus aureus; assay: Bactericidal activity against Staphylococcus aureus ATCC 25923 incubated for 18 hrs by broth microdilution method; assay type: functional
[16] = system: Klebsiella pneumoniae; assay: Antibacterial activity against Klebsiella pneumoniae ATCC 700603 incubated for 18 hrs by broth microdilution method; assay type: functional
[17] = system: Staphylococcus aureus; assay: Antibacterial activity against Staphylococcus aureus at 2 times MIC preincubated for 1 hr with chymotrypsin followed by enzyme inactivation and bacterial addition and measured after 18 hrs; assay type: functional; details: time 19 hrs
[18] = Retention time of the compound; assay type: physicochemical
[19] = system: Pseudomonas aeruginosa; assay: Bactericidal activity against Pseudomonas aeruginosa ATCC 27853 incubated for 18 hrs by broth microdilution method; assay type: functional
[20] = Self-assembly property of compound in PBS assessed as beta-sheet nanofibers formation incubated for 1 hr by Thioflavin T based fluorescence spectrophotometer analysis; assay type: physicochemical; details: buffer, dose 0.5-1.5 µM

| Compound | MIC [1] [µM] | MIC [2] [µM] | MBC [3] [µM] | Activity [4] [%] | MHC [5] [µM] | Activity [6] [%] | MIC [7] [µM] | MIC [8] [µM] | MBC [9] [µM] | MBC [10] [µM] | Activity [11] [%] | Activity [12] [%] | MIC [13] [µM] | MBC [14] [µM] | MBC [15] [µM] | MIC [16] [µM] | Activity [17] [%] | Retention_time [18] [min] | MBC [19] [µM] | Activity [20] |
| --- | --- | --- | --- | --- | --- | --- | --- | --- | --- | --- | --- | --- | --- | --- | --- | --- | --- | --- | --- | --- |
| NCCCC[C@@H](N)C(=O)N[C@H](Cc1c[nH]c2ccccc12)C(=O)N[C@H](CCCCN)C(=O)N[C@H](Cc1c[nH]c2ccccc12)C(=O)N[C@H](CCCCN)C(=O)N1CCC[C@H]1C(=O)NCC(=O)N[C@H](CCCCN)C(=O)N[C@H](Cc1c[nH]c2ccccc12)C(=O)N[C@H](CCCCN)C(=O)N[C@H](Cc1c[nH]c2ccccc12)C(=O)N[C@H](CCCCN)C(N)=O | 2 (≈ 3.37 µg/mL) | 32 (≈ 53.9 µg/mL) | 64 (≈ 108 µg/mL) | 80.2 | > 512 | 100 | 64 (≈ 108 µg/mL) | 4 (≈ 6.74 µg/mL) | 8 (≈ 13.5 µg/mL) | 16 (≈ 27 µg/mL) | 84.3 | 39.2 | 8 (≈ 13.5 µg/mL) | 8 (≈ 13.5 µg/mL) | 32 (≈ 53.9 µg/mL) | 32 (≈ 53.9 µg/mL) | 100 | 11.212 | 128 (≈ 216 µg/mL) | – |
| NCCCC[C@@H](NC(=O)[C@H](N)Cc1c[nH]c2ccccc12)C(=O)N[C@H](Cc1c[nH]c2ccccc12)C(=O)N[C@H](CCCCN)C(=O)N[C@H](Cc1c[nH]c2ccccc12)C(=O)N1CCC[C@@H]1C(=O)N1CCC[C@H]1C(=O)N[C@H](Cc1c[nH]c2ccccc12)C(=O)N[C@H](CCCCN)C(=O)N[C@H](Cc1c[nH]c2ccccc12)C(=O)N[C@H](CCCCN)C(=O)N[C@H](Cc1c[nH]c2ccccc12)C(N)=O | 2 (≈ 3.68 µg/mL) | 4 (≈ 7.36 µg/mL) | 16 (≈ 29.5 µg/mL) | – | 243.5 | 100 | 8 (≈ 14.7 µg/mL) | 4 (≈ 7.36 µg/mL) | 2 (≈ 3.68 µg/mL) | 4 (≈ 7.36 µg/mL) | – | – | 4 (≈ 7.36 µg/mL) | 8 (≈ 14.7 µg/mL) | 8 (≈ 14.7 µg/mL) | 8 (≈ 14.7 µg/mL) | 100 | 14.321 | 32 (≈ 58.9 µg/mL) | – |
| NCCCC[C@@H](N)C(=O)N[C@H](Cc1c[nH]c2ccccc12)C(=O)N[C@H](CCCCN)C(=O)N[C@H](Cc1c[nH]c2ccccc12)C(=O)N[C@H](CCCCN)C(=O)N[C@@H](CC(N)=O)C(=O)NCC(=O)N[C@H](CCCCN)C(=O)N[C@H](Cc1c[nH]c2ccccc12)C(=O)N[C@H](CCCCN)C(=O)N[C@H](Cc1c[nH]c2ccccc12)C(=O)N[C@H](CCCCN)C(N)=O | 2 (≈ 3.4 µg/mL) | 16 (≈ 27.2 µg/mL) | 128 (≈ 218 µg/mL) | – | > 512 | 100 | 32 (≈ 54.5 µg/mL) | 4 (≈ 6.81 µg/mL) | 8 (≈ 13.6 µg/mL) | 8 (≈ 13.6 µg/mL) | – | – | 8 (≈ 13.6 µg/mL) | 8 (≈ 13.6 µg/mL) | 64 (≈ 109 µg/mL) | 64 (≈ 109 µg/mL) | 100 | 11.03 | 128 (≈ 218 µg/mL) | – |
| NCCCC[C@@H](N)C(=O)N[C@H](Cc1c[nH]c2ccccc12)C(=O)N[C@H](CCCCN)C(=O)N[C@H](Cc1c[nH]c2ccccc12)C(=O)N[C@H](CCCCN)C(=O)NCC(=O)NCC(=O)N[C@H](CCCCN)C(=O)N[C@H](Cc1c[nH]c2ccccc12)C(=O)N[C@H](CCCCN)C(=O)N[C@H](Cc1c[nH]c2ccccc12)C(=O)N[C@H](CCCCN)C(N)=O | 2 (≈ 3.29 µg/mL) | 16 (≈ 26.3 µg/mL) | 64 (≈ 105 µg/mL) | – | > 512 | 100 | 64 (≈ 105 µg/mL) | 4 (≈ 6.58 µg/mL) | 8 (≈ 13.2 µg/mL) | 8 (≈ 13.2 µg/mL) | – | – | 8 (≈ 13.2 µg/mL) | 8 (≈ 13.2 µg/mL) | 32 (≈ 52.6 µg/mL) | 16 (≈ 26.3 µg/mL) | 100 | 11.03 | 128 (≈ 211 µg/mL) | – |
| NCCCC[C@@H](N)C(=O)N[C@H](Cc1c[nH]c2ccccc12)C(=O)N[C@H](CCCCN)C(=O)N[C@H](Cc1c[nH]c2ccccc12)C(=O)N[C@H](CCCCN)C(=O)N1CCC[C@@H]1C(=O)N1CCC[C@H]1C(=O)N[C@H](CCCCN)C(=O)N[C@H](Cc1c[nH]c2ccccc12)C(=O)N[C@H](CCCCN)C(=O)N[C@H](Cc1c[nH]c2ccccc12)C(=O)N[C@H](CCCCN)C(N)=O | 4 (≈ 6.9 µg/mL) | 32 (≈ 55.2 µg/mL) | 16 (≈ 27.6 µg/mL) | – | > 512 | 100 | 4 (≈ 6.9 µg/mL) | 4 (≈ 6.9 µg/mL) | 8 (≈ 13.8 µg/mL) | 8 (≈ 13.8 µg/mL) | – | – | 8 (≈ 13.8 µg/mL) | 8 (≈ 13.8 µg/mL) | 64 (≈ 110 µg/mL) | 16 (≈ 27.6 µg/mL) | 100 | 11.03 | 32 (≈ 55.2 µg/mL) | – |
| NCCCC[C@@H](NC(=O)[C@H](N)Cc1c[nH]c2ccccc12)C(=O)N[C@H](Cc1c[nH]c2ccccc12)C(=O)N[C@H](CCCCN)C(=O)N[C@H](Cc1c[nH]c2ccccc12)C(=O)NCC(=O)NCC(=O)N[C@H](Cc1c[nH]c2ccccc12)C(=O)N[C@H](CCCCN)C(=O)N[C@H](Cc1c[nH]c2ccccc12)C(=O)N[C@H](CCCCN)C(=O)N[C@H](Cc1c[nH]c2ccccc12)C(N)=O | 2 (≈ 3.52 µg/mL) | 4 (≈ 7.04 µg/mL) | 8 (≈ 14.1 µg/mL) | – | 66.3 | 100 | 4 (≈ 7.04 µg/mL) | 4 (≈ 7.04 µg/mL) | 8 (≈ 14.1 µg/mL) | 8 (≈ 14.1 µg/mL) | – | – | 8 (≈ 14.1 µg/mL) | 4 (≈ 7.04 µg/mL) | 4 (≈ 7.04 µg/mL) | 8 (≈ 14.1 µg/mL) | 100 | 14.321 | 32 (≈ 56.4 µg/mL) | Not Active |
| NCCCC[C@@H](N)C(=O)N[C@H](Cc1c[nH]c2ccccc12)C(=O)N[C@H](CCCCN)C(=O)N[C@H](Cc1c[nH]c2ccccc12)C(=O)N[C@H](CCCCN)C(=O)N1CCC[C@@H]1C(=O)NCC(=O)N[C@H](CCCCN)C(=O)N[C@H](Cc1c[nH]c2ccccc12)C(=O)N[C@H](CCCCN)C(=O)N[C@H](Cc1c[nH]c2ccccc12)C(=O)N[C@H](CCCCN)C(N)=O | 4 (≈ 6.74 µg/mL) | 16 (≈ 27 µg/mL) | 16 (≈ 27 µg/mL) | 47 | > 512 | 100 | 8 (≈ 13.5 µg/mL) | 4 (≈ 6.74 µg/mL) | 8 (≈ 13.5 µg/mL) | 8 (≈ 13.5 µg/mL) | 35 | 30.4 | 8 (≈ 13.5 µg/mL) | 16 (≈ 27 µg/mL) | 32 (≈ 53.9 µg/mL) | 16 (≈ 27 µg/mL) | 100 | 11.539 | 32 (≈ 53.9 µg/mL) | – |
| NCCCC[C@@H](NC(=O)[C@H](N)Cc1c[nH]c2ccccc12)C(=O)N[C@H](Cc1c[nH]c2ccccc12)C(=O)N[C@H](CCCCN)C(=O)N[C@H](Cc1c[nH]c2ccccc12)C(=O)N1CCC[C@@H]1C(=O)NCC(=O)N[C@H](Cc1c[nH]c2ccccc12)C(=O)N[C@H](CCCCN)C(=O)N[C@H](Cc1c[nH]c2ccccc12)C(=O)N[C@H](CCCCN)C(=O)N[C@H](Cc1c[nH]c2ccccc12)C(N)=O | 2 (≈ 3.6 µg/mL) | 4 (≈ 7.2 µg/mL) | 8 (≈ 14.4 µg/mL) | 44.2 | 147.6 | 100 | 4 (≈ 7.2 µg/mL) | 4 (≈ 7.2 µg/mL) | 2 (≈ 3.6 µg/mL) | 4 (≈ 7.2 µg/mL) | 30.5 | 50 | 4 (≈ 7.2 µg/mL) | 8 (≈ 14.4 µg/mL) | 8 (≈ 14.4 µg/mL) | 8 (≈ 14.4 µg/mL) | 100 | 14.321 | 32 (≈ 57.6 µg/mL) | – |
